Results on 19 compounds are retold here after patent US9303092B2, “Methamphetamine-like hapten compounds, linkers, carriers and compositions and uses thereof” (The Board of Trustees of the University of Arkansas, priority 2000, dated 2016).

The conditions of data set [1]: after intravenous (+)-methamphetamine; cited from earlier work.
Data set [2] concerns discriminative stimulus effects of (+)-methamphetamine. Description: Drug discrimination in rats. The settings on record: i.p., group III.
For data set [3] the test system is unchanged. Description: Drug discrimination in pigeons. The conditions noted are these: i.m.
Description: The pigeons used in these experiments had performed in experiments previously.
Training continued for 40 min or until the pigeons had received 20 reinforcers, whichever occurred first. […] In the determination of cumulative dose-response curves, a dose of drug was administered and the pigeon was placed in the chamber for 10 min, after which the chamber and key lights were illuminated. The pigeon was tested for 5 min or until one food reinforcer had been delivered, whichever occurred first. Food was delivered following the completion of 20 responses on one of the two keys. After food had been delivered, or the session had timed out, the bird was removed from the chamber, a higher dose was administered, and the process was repeated.
Because only a few birds were still available for these experiments, the data for days 1-2 and days 7-8 were combined.
All doses are expressed as the salts.
Data set [4] is described as follows: (+)-Methamphetamine and (+)-amphetamine pharmacokinetic studies in serum and brain with and without mAb6H4. The conditions noted are these: for AUC(0-t): male, Sprague-Dawley, rat, in vivo, Serum.
Description: This allowed the administration of approximately 100 μCi per rat by injection of 1 μl/g of rat body weight.
Male Sprague-Dawley rats were randomly placed into two groups. […] Ethyl ether was used for anesthesia so that hemodynamic stability could be maintained before animal sacrifice. Immediately after blood collection, the rats were decapitated and the brain was removed. The brain was rinsed with saline, weighed, and placed in liquid nitrogen within 3 min of decapitation. Hematocrit values were obtained for each animal. The blood was allowed to clot and serum was obtained after centrifugation. The serum and brain tissues were stored at −80° C. until analyzed.
The second group was the mAb-treatment group. All aspects of the experiment were same as those described for the control group, with the following exception. […] The mAb was given via the jugular venous catheter in an 8-ml volume at 2 ml/min. Because the experimental protocol was the same up until the mAb was administered, the time points before 30 min were not repeated in this group.
For serum analysis, 300 μl of guanidine HCl was added to 200-μl of each serum sample to denature the proteins. The samples were vortexed and placed on a gentle shaker for 30 min. […] After sample application, the cartridges were centrifuged at 230 g for 1 min, washed with 1 ml of water, and then centrifuged. […] Then, 1 ml of methanol:acetic acid (98:2) was added, followed by centrifugation.
A 200-μl aliquot was then added to 300 μl of 8 M guanidine HCl. The mixture was vortexed and gently shaked for 30 min. […] The mixture was vortexed, placed on ice for 5 min, and centrifuged at 12,500 g for 5 min.
Supernatants from the brain samples were applied to conditioned extraction cartridges and then centrifuged at 600 g for 4 min. The brain precipitates left over from the 12,500 g centrifugation were resuspended in 500 μl of water and centrifuged at 12,500 g for 3 min. The supernatants were then added to their respective extraction columns and centrifuged at 600 g for 4 min. This was followed by a 1-ml water wash, with another 4 min centrifugation at 600 g. Finally, the cartridges were placed in siliconized test tubes for sample collection. The elution process was as described for the serum samples.
After elution, the samples were taken to dryness over 3 h in a vacuum centrifuge (Savant Instruments, Inc., Farmingdale, N.Y.) with no heat or cryopumping.
The data were fit to both two- and three-compartment i.v. bolus models, with y (predicted concentration), 1/y, or 1/y^2 weighting. The best-fit line was chosen by visual inspection and analysis of the residuals. […] All pharmacokinetic analysis was performed with the use of WinNonlin V3.0 (Pharsight Corporation, Mountain View, Calif.).
A further data set deals with mAb6H4. Nature of the data set: RIA binding specificity, relative potency to METH. Also noted: species or system mouse. The conditions noted are these: RIA IC50 value for METH/RIA IC50 value for test ligand.
For the next data set, the system named is mAb6H8. Nature of the data set: RIA binding specificity, relative potency to METH. Set-up: species or system mouse. The conditions noted are these: RIA IC50 value for METH/RIA IC50 value for test ligand.
In the next data set the test system is mAb4G9. Description: RIA binding specificity, relative potency to METH. The settings on record: RIA IC50 value for METH/RIA IC50 value for test ligand. Set-up: species or system mouse.
Data set [5] concerns (+)-methamphetamine-induced locomotor activity. Description: (+)-Methamphetamine locomotor activity studies, rat overdose model, mAb at t=30 min. The class given is in vivo.
Description: The parameters of distance traveled (in centimeters or meters), number of rearing events, and time spent moving (in seconds) were individually quantified for each animal. […] Briefly, animals were placed in polyethylene chambers that contained a bedding of dark-gray clay. Animal behavior was videotaped, and the video images were digitized and quantitated in 4-min intervals by EthoVision software (Noldus Information Technology Inc., Sterling, Va.). The duration of drug action was calculated for each parameter starting at 30 min (time of treatment) and until the locomotor activity returned to baseline.
Rats were habituated to the behavioral monitoring chambers before the start of the experimental protocol. This was accomplished by placing the rats in the chambers for a minimum of 3 h per day for 4-6 consecutive days. […] The rats in each group were dosed every three days for a total of 10 days.
On day 1, all groups received saline followed at 30 min by mAb buffer to obtain baseline (non-drug-induced) behavior.
All control buffer and mAb solutions were administered via the jugular venous catheter in an 8-ml volume at 2 ml/min. Three days after the end of the experimental protocol for the 1-mg/kg group, locomotor activity from a second saline administration was monitored to determine whether any changes had occurred in baseline activity.
All other aspects of the protocol were as just described.
The subject of data set [6] is methamphetamine-induced locomotor activity. Nature of the data set: Anti-METH Fab treatment of methamphetamine-induced behavioral effects. The class given is in vivo, rat. The settings on record: 1 mg/kg iv methamphetamine, treatment at 30 min.
Description: Rats (n=4 per group) were administered saline (left most bar) or 1.0 mg/kg d-methamphetamine as an intravenous bolus dose. When drug effects were maximizing at 30 minutes, they were treated with saline (control), an anti-phencyclidine monoclonal antibody Fab fragment (anti-PCP), or an anti-d-methamphetamine-specific monoclonal antibody Fab fragment (anti-methamphetamine).
Data set [7] has as its system (+)methamphetamine induced effects. Nature of the data set: Pretreatment with anti-(+)methamphetamine monoclonal antibody before 1 mg/kg (+)methamphetamine challenge. The data set is classed as in vivo, rat. The settings on record: 1.0 mg/kg i.v. As for the experimental part:
Rats (n=7/group) were administered a dose of […] of anti-methamphetamine monoclonal antibody on day 1. The following day they were administered i.v. (+)methamphetamine (1.0 mg/kg) 3 days apart on two occasions to stabilize locomotor responses and to minimize sensitization.

The conditions of data set [8]: from Riviere et al. (1999); cited from earlier work.
Data set [9] is described as follows: Preliminary studies of high i.v. (+)-methamphetamine doses.

As to `CC(N)Cc1ccccc1` (single isomer, unassigned; (+)) [(+)AMP, (+)-amphetamine], the “time to peak plasma levels of (+)-amphetamine” value in data set [1] is given as ≤ 20 min. The “potency of (+)-methamphetamine and (+)-amphetamine as discriminative stimuli compared” value in [2] is given as “nearly equipotent”. Further, the “potency of (+)-methamphetamine and (+)-amphetamine compared” value in data set [3] is on record as “approximately equipotent”. The “AUC38 min-[…] Treated” value in [4] (Brain, 1-mol equivalent dose of mAb at 30 min) stood at 284 ng·h/g. The “AUC38 min-[…] Control” value in data set [4] (Brain, without treatment) amounted to 530 ng·h/g. In addition, the AUC(0-t) (in general, the area under the concentration-time curve up to a stated or last time point) was determined as 55 ng·h/mL in data set [4] (AUC38 min-[…] Control, without treatment) and 73 ng·h/mL in [4] (AUC38 min-[…] Treated, 1-mol equivalent dose of mAb at 30 min).
Consider `CC(N)Cc1ccc2c(c1)OCO2` (single isomer, unassigned; (+)) [(+)MDA], for which, in the data set with mAb6H4, the “Relative Potency to METH, mAb6H4” value came to 0.001. Besides, the “Relative Potency to METH, mAb6H8” value in the data set on mAb6H8 stood at 0.024. Besides, the “Relative Potency to METH, mAb4G9” value in the data set on mAb4G9 came out at 0.090.
Consider `CNC(C)Cc1ccc2c(c1)OCO2` (single isomer, unassigned; (+)) [(+)MDMA, (+)-3,4-methylenedioxymethamphetamine], for which the “Relative Potency to METH, mAb6H4” value in the data set with mAb6H4 is reported as 1.25. The “Relative Potency to METH, mAb6H8” value in the data set on mAb6H8 worked out at 3.40. Also, in the data set on mAb4G9, the “Relative Potency to METH, mAb4G9” value is listed as 0.29.
With `CC(N)C(O)c1ccccc1` (single isomer, unassigned; (+)) [(+)phenylpropanolamine], the “Relative Potency to METH, mAb6H4” value with mAb6H4 is listed as <0.001. The “Relative Potency to METH, mAb6H8” value in the data set on mAb6H8 is given as <0.001. The “Relative Potency to METH, mAb4G9” value in the data set with mAb4G9 is listed as <0.001.
With `CC(N)Cc1ccc2c(c1)OCO2` (single isomer, unassigned; (-)) [(−)MDA], in the data set with mAb6H4, the “Relative Potency to METH, mAb6H4” value was <0.001. The “Relative Potency to METH, mAb6H8” value with mAb6H8 is on record as <0.001. Also, the “Relative Potency to METH, mAb4G9” value with mAb4G9 was 0.002.
Regarding `CNC(C)Cc1ccc2c(c1)OCO2` (single isomer, unassigned; (-)) [(−)MDMA], in the data set on mAb6H4, the “Relative Potency to METH, mAb6H4” value is 0.007. Besides, in the data set with mAb6H8, the “Relative Potency to METH, mAb6H8” value stood at 0.018. For the same compound, in the data set on mAb4G9, the “Relative Potency to METH, mAb4G9” value is given as 0.011.
For the compound `CNC(C)Cc1ccc(O)cc1` (centres unmarked) [4-OH-METH], the “Relative Potency to METH, mAb6H4” value in the data set with mAb6H4 is recorded as 0.588. Also, in the data set with mAb6H8, the “Relative Potency to METH, mAb6H8” value is 0.294. For the same compound, the “Relative Potency to METH, mAb4G9” value with mAb4G9 was determined as 0.106.
Consider `CN[C@H](C)[C@@H](O)c1ccccc1` [(+)ephedrine], for which the “Relative Potency to METH, mAb6H4” value in the data set on mAb6H4 is <0.001. Besides, in the data set on mAb6H8, the “Relative Potency to METH, mAb6H8” value is reported as <0.001. For the same compound, in the data set with mAb4G9, the “Relative Potency to METH, mAb4G9” value is given as <0.001.
With `CN[C@H](C)Cc1ccccc1` [(−)METH], in the data set on mAb6H4, the “Relative Potency to METH, mAb6H4” value was determined as 0.030. In addition, the “Relative Potency to METH, mAb6H8” value in the data set on mAb6H8 is 0.011. Moreover, the “Relative Potency to METH, mAb4G9” value in the data set on mAb4G9 was 0.102.
Consider `CNC[C@H](O)c1cccc(O)c1` [/-phenylphrine], for which, in the data set with mAb6H4, the “Relative Potency to METH, mAb6H4” value was determined as 0.001. The “Relative Potency to METH, mAb6H8” value in the data set with mAb6H8 is on record as <0.001. The “Relative Potency to METH, mAb4G9” value in the data set with mAb4G9 is recorded as <0.001.
On to `NCCc1ccc(O)c(O)c1` [dopamine], for which the “Relative Potency to METH, mAb6H4” value in the data set on mAb6H4 was <0.001. For the same compound, the “Relative Potency to METH, mAb6H8” value in the data set with mAb6H8 was <0.001. Also, in the data set on mAb4G9, the “Relative Potency to METH, mAb4G9” value was <0.001.
For the compound `CNC[C@H](O)c1ccc(O)c(O)c1` [epinephrine], the “Relative Potency to METH, mAb6H4” value in the data set on mAb6H4 is <0.001. For the same compound, in the data set with mAb6H8, the “Relative Potency to METH, mAb6H8” value was <0.001. The “Relative Potency to METH, mAb4G9” value in the data set on mAb4G9 is <0.001.
Regarding `NC[C@H](O)c1ccc(O)c(O)c1` [norepinepherine], the “Relative Potency to METH, mAb6H4” value in the data set on mAb6H4 is on record as <0.001. The “Relative Potency to METH, mAb6H8” value in the data set with mAb6H8 was <0.001. Also, the “Relative Potency to METH, mAb4G9” value with mAb4G9 is <0.001.
Take `NCCc1c[nH]c2ccc(O)cc12` [serotonin]: the “Relative Potency to METH, mAb6H4” value with mAb6H4 was <0.001. In the data set on mAb6H8, the “Relative Potency to METH, mAb6H8” value is reported as <0.001. Further, the “Relative Potency to METH, mAb4G9” value in the data set on mAb4G9 is on record as <0.001.
For the compound `NCCc1ccc(O)cc1` [tyramine], the “Relative Potency to METH, mAb6H4” value in the data set on mAb6H4 is given as <0.001. In addition, the “Relative Potency to METH, mAb6H8” value in the data set with mAb6H8 was <0.001. For the same compound, the “Relative Potency to METH, mAb4G9” value in the data set on mAb4G9 was <0.001.
`NCCc1ccccc1` [β-phenylethylamine]: in the data set on mAb6H4, the “Relative Potency to METH, mAb6H4” value is listed as <0.001. Further, the “Relative Potency to METH, mAb6H8” value with mAb6H8 is <0.001. Besides, the “Relative Potency to METH, mAb4G9” value with mAb4G9 is reported as 0.001.
As for (+)-methamphetamine [(+)METH], the “duration of (+)-methamphetamine-induced locomotor effects following buffer” value in data set [5] (0.3-mg/kg dose) was “approximately 1 h”; in data set [5] (1.0-mg/kg dose), ~2 h. Also, the “duration of drug action following buffer” value in data set [5] (3.0-mg/kg group) came to 4 h. Further, in data set [6], the “duration of action / activity, distance traveled parameter” value turned out to be 116 ± 17 min. Also, in data set [7], the “duration of action of (+)methamphetamine without the monoclonal antibody” value is reported as “about 160 min”. In addition, the “t1/2dist of (+)-methamphetamine in serum” value in data set [8] is 9 min. In data set [2], the “potency of (+)-methamphetamine and (+)-amphetamine as discriminative stimuli compared” value is given as “nearly equipotent”. Moreover, the “potency of (+)-methamphetamine and (+)-amphetamine compared” value in data set [3] was “approximately equipotent”. In addition, in data set [9], the doses sometimes lethal was 10 mg/kg. In addition, the “i.v. doses that led to self-mutilation” value in data set [9] is ≥ 5.2 mg/kg.
With (+)norpseudoephedrine, the “Relative Potency to METH, mAb6H4” value in the data set with mAb6H4 is recorded as <0.001. In addition, the “Relative Potency to METH, mAb6H8” value in the data set with mAb6H8 was <0.001. For the same compound, the “Relative Potency to METH, mAb4G9” value in the data set with mAb4G9 is recorded as <0.001.
(+)pseudoephedrine: in the data set with mAb6H4, the “Relative Potency to METH, mAb6H4” value is <0.001. Moreover, the “Relative Potency to METH, mAb6H8” value in the data set with mAb6H8 came out at 0.018. In addition, the “Relative Potency to METH, mAb4G9” value in the data set with mAb4G9 is recorded as 0.004.
